Test results from ChEMBL document CHEMBL4420080, “Inhibitors of sox18 protein activity for treating angiogenesis- and/or lymphangiogenesis-related diseases” (2018).
Activity calls are given as the source filed them. The calls are words filed in the database; no cut-off is given here.

Columns and labels:
Danio rerio [1] = assay: Induction of arterial and venous genes dys-regulation in zebrafish larvae harboring fli1 a:eGFP,-6.5kdrl:mCherry assessed as effect on efnb2a gene expression at 1.5 uM dosed starting from 16 hpf and measured at 24 and 48 hpf by qRT-PCR analysis; assay type: functional, organism-based
[2] = biological target: D(1A) dopamine receptor (Homo sapiens) (UniProt P21728); assay: Inhibition of human dopamine D1 receptor at 10 uM relative to control
Cricetinae = assay: Inhibition of hamster KATP channel at 10 uM relative to control
[3] = biological target: Alpha-1A adrenergic receptor (Rattus norvegicus) (UniProt P43140); assay: Inhibition of rat adrenergic alpha1A receptor at 10 uM relative to control
[4] = biological target: Prostaglandin E2 receptor EP4 subtype (Homo sapiens) (UniProt P35408); assay: Inhibition of human EP4 receptor at 10 uM relative to control
Danio rerio [5] = assay: Induction of arterial and venous genes dys-regulation in zebrafish larvae harboring fli1 a:eGFP,-6.5kdrl:mCherry assessed as effect on hey1 gene expression at 1.5 uM dosed starting from 16 hpf and measured at 24 and 48 hpf by qRT-PCR analysis; assay type: functional, organism-based
[6] = biological target: Neuronal acetylcholine receptor (Homo sapiens) (UniProt P17787+P30926+P32297+P43681+Q15822+Q9UGM1+Q15825+P30532+P36544+Q9GZZ6+Q05901); assay: Inhibition of human nAChR at 10 uM relative to control
[7] = biological target: Transcription factor SOX-18 (Homo sapiens, UniProt P35713); assay: Inhibition of SOX18 in HUVEC assessed as reduction of SOX18-ESR1 interactions incubated for 45 mins by Alpha-screen assay; assay type: cell-based
Danio rerio [8] = assay: Induction of arterial and venous genes dys-regulation in zebrafish larvae harboring fli1 a:eGFP,-6.5kdrl:mCherry assessed as effect on Ilt4 gene expression at 1.5 uM dosed starting from 16 hpf and measured at 24 and 48 hpf by qRT-PCR analysis; assay type: functional, organism-based
4T1.2 = assay: Inhibition of tumor induced lymphangiogenesis response in mouse 4T1.2 cells implanted BALB/c mouse assessed as reduction in tumor associated lymphatic vessels at 25 mg/kg/day for 10 days by PROX1/podoplanin detection based immunofluorescent staining relative to control; assay type: functional; conditions: 4T1.2, 240 h

Sequence of Prostaglandin E2 receptor EP4 subtype (Homo sapiens) (P35408 whole entry): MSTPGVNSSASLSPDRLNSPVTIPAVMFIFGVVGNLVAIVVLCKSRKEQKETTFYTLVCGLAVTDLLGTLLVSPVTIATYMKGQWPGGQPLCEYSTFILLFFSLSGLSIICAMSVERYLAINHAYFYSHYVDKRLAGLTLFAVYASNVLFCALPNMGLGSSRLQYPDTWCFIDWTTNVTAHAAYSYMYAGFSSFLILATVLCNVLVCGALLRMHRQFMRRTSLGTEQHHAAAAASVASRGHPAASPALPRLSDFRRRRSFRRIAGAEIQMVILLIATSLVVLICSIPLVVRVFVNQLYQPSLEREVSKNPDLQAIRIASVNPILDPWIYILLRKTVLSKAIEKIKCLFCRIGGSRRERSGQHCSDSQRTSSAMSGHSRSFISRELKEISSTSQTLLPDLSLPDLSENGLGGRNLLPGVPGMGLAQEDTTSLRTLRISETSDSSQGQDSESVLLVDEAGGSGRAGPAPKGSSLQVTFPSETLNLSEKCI
Sequence of Alpha-1A adrenergic receptor (Rattus norvegicus) (P43140 whole entry): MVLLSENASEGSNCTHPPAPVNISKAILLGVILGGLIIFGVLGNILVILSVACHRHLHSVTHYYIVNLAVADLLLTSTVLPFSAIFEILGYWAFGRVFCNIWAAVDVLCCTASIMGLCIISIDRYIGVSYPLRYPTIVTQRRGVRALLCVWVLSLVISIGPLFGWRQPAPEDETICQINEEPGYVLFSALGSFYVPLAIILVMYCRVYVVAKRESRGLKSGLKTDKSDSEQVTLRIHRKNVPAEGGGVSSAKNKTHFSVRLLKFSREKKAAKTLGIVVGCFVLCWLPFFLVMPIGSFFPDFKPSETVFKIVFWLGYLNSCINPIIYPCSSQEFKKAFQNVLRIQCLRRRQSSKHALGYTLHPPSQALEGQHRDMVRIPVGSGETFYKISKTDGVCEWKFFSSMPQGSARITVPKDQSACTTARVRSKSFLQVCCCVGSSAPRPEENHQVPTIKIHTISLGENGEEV
Sequence of D(1A) dopamine receptor (Homo sapiens) (P21728 whole entry): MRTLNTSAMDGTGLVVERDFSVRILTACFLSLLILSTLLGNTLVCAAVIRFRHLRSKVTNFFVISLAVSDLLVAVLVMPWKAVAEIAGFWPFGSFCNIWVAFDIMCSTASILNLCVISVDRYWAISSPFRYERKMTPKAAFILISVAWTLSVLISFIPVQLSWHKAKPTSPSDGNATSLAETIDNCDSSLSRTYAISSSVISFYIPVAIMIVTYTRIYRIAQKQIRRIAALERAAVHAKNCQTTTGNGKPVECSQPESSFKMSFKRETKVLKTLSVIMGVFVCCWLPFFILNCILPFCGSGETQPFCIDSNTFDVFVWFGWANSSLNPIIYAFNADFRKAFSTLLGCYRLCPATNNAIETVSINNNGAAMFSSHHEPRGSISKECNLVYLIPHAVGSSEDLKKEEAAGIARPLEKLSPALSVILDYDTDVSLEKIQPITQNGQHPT
Sequence of Transcription factor SOX-18 (P35713 whole entry): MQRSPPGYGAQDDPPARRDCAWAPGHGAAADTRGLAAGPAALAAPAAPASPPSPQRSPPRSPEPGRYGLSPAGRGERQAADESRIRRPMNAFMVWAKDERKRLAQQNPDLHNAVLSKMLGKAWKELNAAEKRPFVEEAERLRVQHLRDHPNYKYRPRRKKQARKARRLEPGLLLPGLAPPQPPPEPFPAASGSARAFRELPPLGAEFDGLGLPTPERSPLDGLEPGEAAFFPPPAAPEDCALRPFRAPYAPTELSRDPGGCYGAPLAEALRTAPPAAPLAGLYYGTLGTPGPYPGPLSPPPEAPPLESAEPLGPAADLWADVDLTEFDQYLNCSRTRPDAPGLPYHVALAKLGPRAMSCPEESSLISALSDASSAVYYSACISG

## O=C(O)c1c(O)cccc1CCc1ccc2ccccc2c1
Danio rerio [1]
  Activity: Active
[2]
  inhibition: 12%
Cricetinae
  inhibition: 10%
[3]
  inhibition: 0%
[4]
  inhibition: 27%
Danio rerio [5]
  Activity: Active
[6]
  inhibition: 3%
[7]
  IC50: Not Active
Danio rerio [8]
  Activity: Active
4T1.2
  inhibition in vivo at 25 mg/kg/day: 65%
